From PMC9558423 (Molecular nutrition & food research, 2020)

conditions: High dose (1000 mg/kg bw); 12h urine collections; np = no peak

Compound | Qualitative Tmax (urine collection with greatest excretion)
COc1cc(-c2[o+]c3cc(O)cc(O)c3cc2O[C@@H]2O[C@H](CO)[C@@H](O)[C@H](O)[C@H]2O)cc(OC)c1O [Malvidin Glucoside, malvidin-3-O-glucoside] | 0 to 12 h
COc1cc(-c2[o+]c3cc(O)cc(O)c3cc2OC2OC(CO)C(O)C(O)C2O)cc(O)c1O (stereo not drawn) [Petunidin Galactoside, petunidin-3-O-galactoside] | 0 to 12 h
COc1cc(-c2[o+]c3cc(O)cc(O)c3cc2O[C@@H]2O[C@H](CO)[C@@H](O)[C@H](O)[C@H]2O)cc(O)c1O [Petunidin Glucoside, petunidin-3-O-glucoside] | 0 to 12 h
Caffeic acid sulfate | 0 to 12 h
delphinidin sulfate | 0 to 24 h
petunidin glucuronide | 0 to 12 h

same assay, conditions: High dose (1000 mg/kg bw); urine; mean ± SD

Compound | Cmax (nmol excreted)
O=C(O)CNC(=O)c1cccc(O)c1 [3-OH-hippuric acid, 3-hydroxyhippuric acid] | 26.3 ± 7.6 nmol excreted
O=C(O)Cc1ccc(O)cc1 [4-OH-PAA, 4-hydroxyphenylacetic acid] | 0.51 ± 0.16 nmol excreted
O=C(O)/C=C/c1ccc(O)c(O)c1 [Caffeic acid, caffeic acid] | 3.97 ± 1.38 nmol excreted
O=C(/C=C/c1ccc(O)c(O)c1)O[C@@H]1C[C@](O)(C(=O)O)C[C@@H](O)[C@H]1O [Chlorogenic acid, chlorogenic acid] | 238 ± 67 nmol excreted
COc1cc(-c2[o+]c3cc(O)cc(O)c3cc2O[C@@H]2O[C@H](CO)[C@@H](O)[C@H](O)[C@H]2O)cc(OC)c1O [Malvidin Glucoside, malvidin-3-O-glucoside] | 10.7 ± 0.9 nmol excreted
COc1cc(-c2[o+]c3cc(O)cc(O)c3cc2OC2OC(CO)C(O)C(O)C2O)cc(O)c1O (stereo not drawn) [Petunidin Galactoside, petunidin-3-O-galactoside] | 1.73 ± 0.38 nmol excreted
COc1cc(-c2[o+]c3cc(O)cc(O)c3cc2O[C@@H]2O[C@H](CO)[C@@H](O)[C@H](O)[C@H]2O)cc(O)c1O [Petunidin Glucoside, petunidin-3-O-glucoside] | 0.94 ± 0.19 nmol excreted
O=c1c(O)c(-c2ccc(O)c(O)c2)oc2cc(O)cc(O)c12 [Quercetin, quercetin] | 11.5 ± 4.0 nmol excreted
Caffeic acid sulfate | 9.74 ± 0.78 nmol excreted
delphinidin sulfate | 20.2 ± 2.4 nmol excreted
petunidin glucuronide | 3.49 ± 0.46 nmol excreted

same assay, conditions: Low dose (75 mg/kg bw); 12h urine collections; np = no peak

Compound | Qualitative Tmax (urine collection with greatest excretion)
O=C(O)CNC(=O)c1cccc(O)c1 [3-OH-hippuric acid, 3-hydroxyhippuric acid] | np
O=C(O)/C=C/c1ccc(O)c(O)c1 [Caffeic acid, caffeic acid] | np
O=C(/C=C/c1ccc(O)c(O)c1)O[C@@H]1C[C@](O)(C(=O)O)C[C@@H](O)[C@H]1O [Chlorogenic acid, chlorogenic acid] | np
COc1cc(-c2[o+]c3cc(O)cc(O)c3cc2O[C@@H]2O[C@H](CO)[C@@H](O)[C@H](O)[C@H]2O)cc(OC)c1O [Malvidin Glucoside, malvidin-3-O-glucoside] | np
COc1cc(-c2[o+]c3cc(O)cc(O)c3cc2OC2OC(CO)C(O)C(O)C2O)cc(O)c1O (stereo not drawn) [Petunidin Galactoside, petunidin-3-O-galactoside] | np
COc1cc(-c2[o+]c3cc(O)cc(O)c3cc2O[C@@H]2O[C@H](CO)[C@@H](O)[C@H](O)[C@H]2O)cc(O)c1O [Petunidin Glucoside, petunidin-3-O-glucoside] | np
Caffeic acid sulfate | np
delphinidin sulfate | np
petunidin glucuronide | np

same assay, conditions: Low dose (75 mg/kg bw); urine; mean ± SD

Compound | Cmax (nmol excreted)
O=C(O)CNC(=O)c1cccc(O)c1 [3-OH-hippuric acid, 3-hydroxyhippuric acid] | np
O=C(O)Cc1ccc(O)cc1 [4-OH-PAA, 4-hydroxyphenylacetic acid] | 0.30 ± 0.12 nmol excreted
O=C(O)/C=C/c1ccc(O)c(O)c1 [Caffeic acid, caffeic acid] | np
O=C(/C=C/c1ccc(O)c(O)c1)O[C@@H]1C[C@](O)(C(=O)O)C[C@@H](O)[C@H]1O [Chlorogenic acid, chlorogenic acid] | np
COc1cc(-c2[o+]c3cc(O)cc(O)c3cc2O[C@@H]2O[C@H](CO)[C@@H](O)[C@H](O)[C@H]2O)cc(OC)c1O [Malvidin Glucoside, malvidin-3-O-glucoside] | np
COc1cc(-c2[o+]c3cc(O)cc(O)c3cc2OC2OC(CO)C(O)C(O)C2O)cc(O)c1O (stereo not drawn) [Petunidin Galactoside, petunidin-3-O-galactoside] | np
COc1cc(-c2[o+]c3cc(O)cc(O)c3cc2O[C@@H]2O[C@H](CO)[C@@H](O)[C@H](O)[C@H]2O)cc(O)c1O [Petunidin Glucoside, petunidin-3-O-glucoside] | np
O=c1c(O)c(-c2ccc(O)c(O)c2)oc2cc(O)cc(O)c12 [Quercetin, quercetin] | 3.88 ± 1.46 nmol excreted
Caffeic acid sulfate | np
delphinidin sulfate | np
petunidin glucuronide | np

same assay, conditions: Medium dose (350 mg/kg bw); 12h urine collections; np = no peak

Compound | Qualitative Tmax (urine collection with greatest excretion)
COc1cc(-c2[o+]c3cc(O)cc(O)c3cc2O[C@@H]2O[C@H](CO)[C@@H](O)[C@H](O)[C@H]2O)cc(OC)c1O [Malvidin Glucoside, malvidin-3-O-glucoside] | 0 to 12 h
COc1cc(-c2[o+]c3cc(O)cc(O)c3cc2OC2OC(CO)C(O)C(O)C2O)cc(O)c1O (stereo not drawn) [Petunidin Galactoside, petunidin-3-O-galactoside] | 0 to 12 h
COc1cc(-c2[o+]c3cc(O)cc(O)c3cc2O[C@@H]2O[C@H](CO)[C@@H](O)[C@H](O)[C@H]2O)cc(O)c1O [Petunidin Glucoside, petunidin-3-O-glucoside] | 0 to 12 h
Caffeic acid sulfate | 0 to 12 h
delphinidin sulfate | 0 to 24 h
petunidin glucuronide | 0 to 12 h

same assay, conditions: Medium dose (350 mg/kg bw); urine; mean ± SD

Compound | Cmax (nmol excreted)
O=C(O)CNC(=O)c1cccc(O)c1 [3-OH-hippuric acid, 3-hydroxyhippuric acid] | 31.8 ± 8.1 nmol excreted
O=C(O)Cc1ccc(O)cc1 [4-OH-PAA, 4-hydroxyphenylacetic acid] | 0.84 ± 0.38 nmol excreted
O=C(O)/C=C/c1ccc(O)c(O)c1 [Caffeic acid, caffeic acid] | 3.18 ± 1.64 nmol excreted
O=C(/C=C/c1ccc(O)c(O)c1)O[C@@H]1C[C@](O)(C(=O)O)C[C@@H](O)[C@H]1O [Chlorogenic acid, chlorogenic acid] | 66.1 ± 23.4 nmol excreted
COc1cc(-c2[o+]c3cc(O)cc(O)c3cc2O[C@@H]2O[C@H](CO)[C@@H](O)[C@H](O)[C@H]2O)cc(OC)c1O [Malvidin Glucoside, malvidin-3-O-glucoside] | 6.57 ± 0.57 nmol excreted
COc1cc(-c2[o+]c3cc(O)cc(O)c3cc2OC2OC(CO)C(O)C(O)C2O)cc(O)c1O (stereo not drawn) [Petunidin Galactoside, petunidin-3-O-galactoside] | 0.49 ± 0.23 nmol excreted
COc1cc(-c2[o+]c3cc(O)cc(O)c3cc2O[C@@H]2O[C@H](CO)[C@@H](O)[C@H](O)[C@H]2O)cc(O)c1O [Petunidin Glucoside, petunidin-3-O-glucoside] | 0.37 ± 0.14 nmol excreted
O=c1c(O)c(-c2ccc(O)c(O)c2)oc2cc(O)cc(O)c12 [Quercetin, quercetin] | 10.1 ± 7.4 nmol excreted
Caffeic acid sulfate | 6.43 ± 4.57 nmol excreted
delphinidin sulfate | 18.2 ± 2.4 nmol excreted
petunidin glucuronide | 0.92 ± 0.24 nmol excreted

same assay, conditions: female, Sprague Dawley, rat, urine, po, 75 mg/kg

Compound | Tmax
O=C(O)Cc1ccc(O)cc1 [4-OH-PAA, 4-hydroxyphenylacetic acid] | 0 to 24 h
O=c1c(O)c(-c2ccc(O)c(O)c2)oc2cc(O)cc(O)c12 [Quercetin, quercetin] | 0 to 12 h

same assay, conditions: female, Sprague Dawley, rat, urine, po, 350 mg/kg

Compound | Tmax
O=C(O)CNC(=O)c1cccc(O)c1 [3-OH-hippuric acid, 3-hydroxyhippuric acid] | 12 to 24 h
O=C(O)Cc1ccc(O)cc1 [4-OH-PAA, 4-hydroxyphenylacetic acid] | 0 to 24 h
O=C(O)/C=C/c1ccc(O)c(O)c1 [Caffeic acid, caffeic acid] | 0 to 12 h
O=C(/C=C/c1ccc(O)c(O)c1)O[C@@H]1C[C@](O)(C(=O)O)C[C@@H](O)[C@H]1O [Chlorogenic acid, chlorogenic acid] | 0 to 24 h
O=c1c(O)c(-c2ccc(O)c(O)c2)oc2cc(O)cc(O)c12 [Quercetin, quercetin] | 0 to 12 h

same assay, conditions: female, Sprague Dawley, rat, urine, po, 1000 mg/kg

Compound | Tmax
O=C(O)CNC(=O)c1cccc(O)c1 [3-OH-hippuric acid, 3-hydroxyhippuric acid] | 12 to 24 h
O=C(O)Cc1ccc(O)cc1 [4-OH-PAA, 4-hydroxyphenylacetic acid] | 0 to 24 h
O=C(O)/C=C/c1ccc(O)c(O)c1 [Caffeic acid, caffeic acid] | 0 to 12 h
O=C(/C=C/c1ccc(O)c(O)c1)O[C@@H]1C[C@](O)(C(=O)O)C[C@@H](O)[C@H]1O [Chlorogenic acid, chlorogenic acid] | 0 to 12 h
O=c1c(O)c(-c2ccc(O)c(O)c2)oc2cc(O)cc(O)c12 [Quercetin, quercetin] | 0 to 12 h
